SMILES strings stand for the structures.

One test addresses T1, butyrylcholinesterase (Rattus norvegicus, UniProt Q9JKC1).
T1 construct: Butyrylcholinesterase: rat serum; from tissue; host or cells: rat serum
Nature of the test: inhibition of butyrylcholinesterase (rat serum). It counts as biochemical. The conditions noted are these: rat serum enzyme; final concentration 4×10−5 mol/L. As to the method: (§1) Sample processing: All samples were formulated as 10-2 mol/L solution by using 100% DMSO. 10-2 mol/L solution was used in microdetermination. 1 μL was taken to use in single tube experiment.
(§2) Solvent control: 0.4% DMSO was used in microdetermination. The inhibition ratio of the sample was obtained wherein the effect of solvent was deducted.
Butyrylcholinesterase: rat serum

For the next test, the target named is T2, acetylcholinesterase (Rattus norvegicus, UniProt P37136).
T2 construct: Acetylcholinesterase: rat cortex; from tissue; host or cells: rat cortex
T2 sequence (P37136 32-614): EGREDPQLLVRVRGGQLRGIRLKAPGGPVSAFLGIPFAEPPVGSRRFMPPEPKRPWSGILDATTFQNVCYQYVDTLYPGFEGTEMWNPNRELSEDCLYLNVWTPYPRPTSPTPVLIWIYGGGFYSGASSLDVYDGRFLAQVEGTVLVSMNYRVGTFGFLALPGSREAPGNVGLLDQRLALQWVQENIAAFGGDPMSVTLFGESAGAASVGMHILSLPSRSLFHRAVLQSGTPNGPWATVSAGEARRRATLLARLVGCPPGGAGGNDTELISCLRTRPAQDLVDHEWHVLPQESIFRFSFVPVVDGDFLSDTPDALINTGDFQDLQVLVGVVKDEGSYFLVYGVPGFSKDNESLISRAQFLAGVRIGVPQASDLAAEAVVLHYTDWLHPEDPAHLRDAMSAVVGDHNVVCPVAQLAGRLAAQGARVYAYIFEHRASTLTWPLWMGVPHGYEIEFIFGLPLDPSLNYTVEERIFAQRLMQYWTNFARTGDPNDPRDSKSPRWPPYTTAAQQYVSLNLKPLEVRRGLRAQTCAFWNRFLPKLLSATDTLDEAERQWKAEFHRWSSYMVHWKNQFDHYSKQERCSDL
The test is described as follows: biochemical. Type of test: biochemical. The note with it: rat cortex enzyme; for acetylcholinesterase inhibitory activity inhibition ratio (%): final concentration 4×10−5 mol/L; for IC50: read-out: acetylcholinesterase inhibitory activity IC50 (nmol). As to the method: as §1, §2
Acetylcholinesterase: rat cortex

T1 sequence (Q9JKC1 24-597): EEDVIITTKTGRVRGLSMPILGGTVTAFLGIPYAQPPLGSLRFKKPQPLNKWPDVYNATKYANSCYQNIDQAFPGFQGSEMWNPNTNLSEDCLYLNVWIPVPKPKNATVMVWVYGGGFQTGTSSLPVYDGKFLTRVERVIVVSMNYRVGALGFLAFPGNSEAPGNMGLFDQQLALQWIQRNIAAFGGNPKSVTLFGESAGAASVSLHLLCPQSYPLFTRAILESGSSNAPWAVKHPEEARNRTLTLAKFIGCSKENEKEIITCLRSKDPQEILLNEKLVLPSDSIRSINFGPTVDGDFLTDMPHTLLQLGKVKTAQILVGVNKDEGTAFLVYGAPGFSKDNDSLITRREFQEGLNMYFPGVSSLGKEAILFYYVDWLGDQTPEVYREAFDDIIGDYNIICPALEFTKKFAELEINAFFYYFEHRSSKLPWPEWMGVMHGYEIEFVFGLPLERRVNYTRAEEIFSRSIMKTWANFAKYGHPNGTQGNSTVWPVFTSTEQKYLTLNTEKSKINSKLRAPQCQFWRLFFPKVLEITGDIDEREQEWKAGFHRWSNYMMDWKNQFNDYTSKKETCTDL

`COc1cc2c(cc1OC)C(=O)C(CC1(F)CC3CCC(C1)N3Cc1ccccc1)C2` (stereo not shown) [DC59, 2-((8-benzyl-3-fluoro-8-azabicyclo[3.2.1]octan-3-yl)methyl)-5,6-dimethoxy-2,3-dihydro-1H-inden-1-one]: the “butyrylcholinesterase inhibitory activity inhibition ratio (%)” value at butyrylcholinesterase amounted to 69.03%. In addition, the “acetylcholinesterase inhibitory activity inhibition ratio (%)” value on acetylcholinesterase is listed as 86.12%.

On to `CCOCOc1cc2c(cc1OCOCC)C(=O)C(CC1(F)CCN(Cc3ccccc3F)CC1)C2` (stereo not shown) [DC79, 5,6-bis(ethoxymethoxy)-2-((4-fluoro-1-(2-fluorobenzyl)piperidin-4-yl)methyl)-2,3-dihydro-1H-inden-1-one], for which the “butyrylcholinesterase inhibitory activity inhibition ratio (%)” value at butyrylcholinesterase was 75.0%. Moreover, at acetylcholinesterase, the “acetylcholinesterase inhibitory activity inhibition ratio (%)” value stood at 93.05% and the IC50 amounted to 1.86 nM.

Regarding `COc1cc2c(cc1OC)C(=O)C(CC1(F)CCN(Cc3ccc(OC(F)(F)F)cc3)CC1)C2` (stereo not shown) [DC6, 2-((4-fluoro-1-(4-(trifluoromethoxy)benzyl)piperidin-4-yl)methyl)-5,6-dimethoxy-2,3-dihydro-1H-inden-1-one], the “butyrylcholinesterase inhibitory activity inhibition ratio (%)” value at butyrylcholinesterase is 1.24%. For the same compound, the “acetylcholinesterase inhibitory activity inhibition ratio (%)” value on acetylcholinesterase was 51.7%.

Turning to `COc1cc2c(cc1OC)C(=O)C(CC1(F)CCN(Cc3ccccc3C#N)CC1)C2` (stereo not shown) [DC3, 2-((4-((5,6-dimethoxy-1-oxo-2,3-dihydro-1H-inden-2-yl)methyl)-4-fluoropiperidin-1-yl)methyl)benzonitrile], the “butyrylcholinesterase inhibitory activity inhibition ratio (%)” value at butyrylcholinesterase amounted to 36.42%. Also, the “acetylcholinesterase inhibitory activity inhibition ratio (%)” value on acetylcholinesterase is reported as 80.04%.

As to `COc1cc2c(cc1OC)C(=O)C(CC1(F)CCN(CC3CCCC3)CC1)C2` (stereo not shown) [DC32, 2-((1-(cyclopentylmethyl)-4-fluoropiperidin-4-yl)methyl)-5,6-dimethoxy-2,3-dihydro-1H-inden-1-one], the “butyrylcholinesterase inhibitory activity inhibition ratio (%)” value on butyrylcholinesterase came out at 46.68%. Besides, on acetylcholinesterase, the “acetylcholinesterase inhibitory activity inhibition ratio (%)” value came out at 90.10%.

For the compound `O=C1c2cc(Cl)c(Cl)cc2CC1CC1(F)CCN(Cc2ccccc2F)CC1` (stereo not shown) [DC106, 5,6-dichloro-2-((4-fluoro-1-(2-fluorobenzyl)piperidin-4-yl)methyl)-2,3-dihydro-1H-inden-1-one], at butyrylcholinesterase, the “butyrylcholinesterase inhibitory activity inhibition ratio (%)” value is recorded as 88.0%. Moreover, at acetylcholinesterase, the “acetylcholinesterase inhibitory activity inhibition ratio (%)” value was 70.05% and the IC50 stood at 500 nM.

Regarding `COc1cc2c(cc1OC)C(=O)C(CC1(F)CC3CCC(C1)N3Cc1cccc(C(F)(F)F)c1)C2` (stereo not shown) [DC70, 2-((3-fluoro-8-(3-(trifluoromethyl)benzyl)-8-azabicyclo[3.2.1]octan-3-yl)methyl)-5,6-dimethoxy-2,3-dihydro-1H-inden-1-one], the “butyrylcholinesterase inhibitory activity inhibition ratio (%)” value at butyrylcholinesterase came to 0.09%. The “acetylcholinesterase inhibitory activity inhibition ratio (%)” value at acetylcholinesterase is 76.51%.

With `COc1cc2c(cc1OC)C(=O)C(CC1(F)CCN(Cc3cc(C(F)(F)F)cc(C(F)(F)F)c3)CC1)C2` (stereo not shown) [DC22, 2-((1-(3,5-bis(trifluoromethyl)benzyl)-4-fluoropiperidin-4-yl)methyl)-5,6-dimethoxy-2,3-dihydro-1H-inden-1-one], the “butyrylcholinesterase inhibitory activity inhibition ratio (%)” value on butyrylcholinesterase is on record as 4.36%. The “acetylcholinesterase inhibitory activity inhibition ratio (%)” value at acetylcholinesterase was 58.49%.

Take `COc1cc2c(cc1OC)C(=O)C(CC1(F)CCN(CC3CCCCC3)CC1)C2` (stereo not shown) [DC33, 2-((1-(cyclohexylmethyl)-4-fluoropiperidin-4-yl)methyl)-5,6-dimethoxy-2,3-dihydro-1H-inden-1-one]: on butyrylcholinesterase, the “butyrylcholinesterase inhibitory activity inhibition ratio (%)” value is on record as 0.36%. Also, the “acetylcholinesterase inhibitory activity inhibition ratio (%)” value at acetylcholinesterase is on record as 90.10%.

As for `COc1cc2c(cc1OC)C(=O)C(CC1(F)CCN(Cc3ccc(C(F)(F)F)cc3)CC1)C2` (stereo not shown) [DC16, 2-((4-fluoro-1-(4-(trifluoromethyl)benzyl)piperidin-4-yl)methyl)-5,6-dimethoxy-2,3-dihydro-1H-inden-1-one], the “butyrylcholinesterase inhibitory activity inhibition ratio (%)” value on butyrylcholinesterase came to 0.00%. Further, the “acetylcholinesterase inhibitory activity inhibition ratio (%)” value on acetylcholinesterase was determined as 75.25%.

As for `COc1cc2c(cc1OC)C(=O)C(CC1(F)CCN(CC3CCC3)CC1)C2` (stereo not shown) [DC31, 2-((1-(cyclobutylmethyl)-4-fluoropiperidin-4-yl)methyl)-5,6-dimethoxy-2,3-dihydro-1H-inden-1-one], on butyrylcholinesterase, the “butyrylcholinesterase inhibitory activity inhibition ratio (%)” value was determined as 35.06%. On acetylcholinesterase, the “acetylcholinesterase inhibitory activity inhibition ratio (%)” value is 85.82%.

With `COc1cc2c(cc1OC)C(=O)C(CC1(F)CC3CCC(C1)N3Cc1c(F)c(F)c(F)c(F)c1F)C2` (stereo not shown) [DC68, 2-((3-fluoro-8-((perfluorophenyl)methyl)-8-azabicyclo[3.2.1]octan-3-yl)methyl)-5,6-dimethoxy-2,3-dihydro-1H-inden-1-one], the “butyrylcholinesterase inhibitory activity inhibition ratio (%)” value on butyrylcholinesterase came out at 4.0%. At acetylcholinesterase, the “acetylcholinesterase inhibitory activity inhibition ratio (%)” value was 93.80%.

For `COc1cc2c(cc1OC)C(=O)C(CC1(F)CCN(Cc3cc(F)cc(F)c3F)CC1)C2` (stereo not shown) [DC35, 2-((4-fluoro-1-(2,3,5-trifluorobenzyl)piperidin-4-yl)methyl)-5,6-dimethoxy-2,3-dihydro-1H-inden-1-one], on butyrylcholinesterase, the “butyrylcholinesterase inhibitory activity inhibition ratio (%)” value worked out at 10.08%. In addition, the “acetylcholinesterase inhibitory activity inhibition ratio (%)” value on acetylcholinesterase came out at 94.39%.

On to `COc1cc2c(cc1OC)C(=O)C(CC1(F)CCN(C(=O)c3ccccc3)CC1)C2` (stereo not shown) [DC23, 2-((1-benzoyl-4-fluoropiperidin-4-yl)methyl)-5,6-dimethoxy-2,3-dihydro-1H-inden-1-one], for which, on butyrylcholinesterase, the “butyrylcholinesterase inhibitory activity inhibition ratio (%)” value came to 0.00%. At acetylcholinesterase, the “acetylcholinesterase inhibitory activity inhibition ratio (%)” value is 57.09%.

Turning to `COc1cc2c(cc1OC)C(=O)C(CC1(F)CC3CCC(C1)N3Cc1ccc(C(C)(C)C)cc1)C2` (stereo not shown) [DC47, 2-((8-(4-(tert-butyl)benzyl)-3-fluoro-8-azabicyclo[3.2.1]octan-3-yl)methyl)-5,6-dimethoxy-2,3-dihydro-1H-inden-1-one], at butyrylcholinesterase, the “butyrylcholinesterase inhibitory activity inhibition ratio (%)” value turned out to be 7.63%. Also, the “acetylcholinesterase inhibitory activity inhibition ratio (%)” value on acetylcholinesterase is listed as 75.33%.

As to `O=C1c2cc(OCC(F)F)c(OCC(F)F)cc2CC1CC1(F)CCN(Cc2ccccc2F)CC1` (stereo not shown) [DC105, 5,6-bis(2,2-difluoroethoxy)-2-((4-fluoro-1-(2-fluorobenzyl)piperidin-4-yl)methyl)-2,3-dihydro-1H-inden-1-one], the “butyrylcholinesterase inhibitory activity inhibition ratio (%)” value on butyrylcholinesterase is 61.5%. Also, at acetylcholinesterase, the “acetylcholinesterase inhibitory activity inhibition ratio (%)” value was 98.14% and the half-maximal inhibitory concentration (IC50) was found to be 0.99 nM.

With `COc1cc2c(cc1OC)C(=O)C(CC1(F)CC3CCC(C1)N3Cc1ccccc1[N+](=O)[O-])C2` (stereo not shown) [DC52, 2-((3-fluoro-8-(2-nitrobenzyl)-8-azabicyclo[3.2.1]octan-3-yl)methyl)-5,6-dimethoxy-2,3-dihydro-1H-inden-1-one], the “butyrylcholinesterase inhibitory activity inhibition ratio (%)” value at butyrylcholinesterase stood at 0.73%. Besides, the “acetylcholinesterase inhibitory activity inhibition ratio (%)” value on acetylcholinesterase is reported as 93.80%.

Take `COC(=O)C1CC(F)(CC2Cc3cc(OC)c(OC)cc3C2=O)CCN1Cc1ccccc1F` (stereo not shown) [DC107, methyl 4-((5,6-dimethoxy-1-oxo-2,3-dihydro-1H-inden-2-yl)methyl)-4-fluoro-1-(2-fluorobenzyl)piperidine-2-carboxylate]: the “butyrylcholinesterase inhibitory activity inhibition ratio (%)” value on butyrylcholinesterase is on record as 75.6%. Besides, at acetylcholinesterase, the “acetylcholinesterase inhibitory activity inhibition ratio (%)” value turned out to be 76.03% and the IC50 is 23 nM.

Consider `COc1cc2c(cc1OC)C(=O)C(CC1(F)CC3CCC(C1)N3Cc1cccc(C)c1)C2` (stereo not shown) [DC69, 2-((3-fluoro-8-(3-methylbenzyl)-8-azabicyclo[3.2.1]octan-3-yl)methyl)-5,6-dimethoxy-2,3-dihydro-1H-inden-1-one], for which the “butyrylcholinesterase inhibitory activity inhibition ratio (%)” value on butyrylcholinesterase came out at 58.86%. For the same compound, at acetylcholinesterase, the “acetylcholinesterase inhibitory activity inhibition ratio (%)” value came out at 97.49%.

On to `COc1cc2c(cc1OC)C(=O)C(CC1(F)CCN(Cc3ccc(C(C)(C)C)cc3)CC1)C2` (stereo not shown) [DC7, 2-((1-(4-(tert-butyl)benzyl)-4-fluoropiperidin-4-yl)methyl)-5,6-dimethoxy-2,3-dihydro-1H-inden-1-one], for which the “butyrylcholinesterase inhibitory activity inhibition ratio (%)” value at butyrylcholinesterase came to 8.40%. In addition, the “acetylcholinesterase inhibitory activity inhibition ratio (%)” value at acetylcholinesterase amounted to 69.06%.

As for `O=C1c2cc(OC(F)F)c(OC(F)F)cc2CC1CC1(F)CCN(Cc2ccccc2F)CC1` (stereo not shown) [DC104, 5,6-bis(difluoromethoxy)-2-((4-fluoro-1-(2-fluorobenzyl)piperidin-4-yl)methyl)-2,3-dihydro-1H-inden-1-one], at butyrylcholinesterase, the “butyrylcholinesterase inhibitory activity inhibition ratio (%)” value worked out at 71.8%. On acetylcholinesterase, the “acetylcholinesterase inhibitory activity inhibition ratio (%)” value amounted to 98.02% and the IC50 came out at 0.76 nM.

On to `COc1cc2c(cc1OC)C(=O)C(CC1(F)CCN(Cc3ccc(F)c(F)c3F)CC1)C2` (stereo not shown) [DC12, 2-((4-fluoro-1-(2,3,4-trifluorobenzyl)piperidin-4-yl)methyl)-5,6-dimethoxy-2,3-dihydro-1H-inden-1-one], for which the “butyrylcholinesterase inhibitory activity inhibition ratio (%)” value on butyrylcholinesterase is given as 38.15%. Also, the “acetylcholinesterase inhibitory activity inhibition ratio (%)” value on acetylcholinesterase is listed as 98.08%.

The values above are taken from US20150284331A1 (priority 2012, published 2015).
